According to publication PMC4919791, “Effect of curcumin analogs onα-synuclein aggregation and cytotoxicity” (Scientific Reports, 2016):
Entries after “also recorded” stand apart in the source; their conditions may differ.

Key:
[1] = molecular target: T1, α-Syn oligomers (Homo sapiens, UniProt P37840); test: Binding affinity to α-Syn oligomers by curcumin analog fluorescence; conditions: compound fluorescence; read-out: dissociation constant (Kd) for α-Syn oligomers
T1 construct: made in house; host or cells: Escherichia coli BL21
Description: Immediately after incubation, fluorescence study was performed (for the excitation and emission ranges for each compounds, see Fig. S1). Experiments were performed using FluoroMax-4 spectrofluorometer (HORIBA JobinYvon) with excitation and emission slit widths of 5 nm.
The data were analyzed in Graphpad Prism software according to established method as used previously.

[2] = molecular target: T2, α-Syn (Homo sapiens, UniProt P37840); test: α-Syn aggregation kinetics by compound fluorescence; type: biochemical; conditions: in presence of analog
T2 construct: made in house; host or cells: Escherichia coli BL21
Description: ThT fluorescence was used to monitor the aggregation kinetics of α-Syn only as a control.
(§1) Subsequently, we examined the effect of these analogs on α-Syn oligomerization by time dependent static light scattering experiment. […] After aggregation, TEM study was done to determine the effects of these analogs on the morphology of the resultant aggregates.
The α-Syn amyloid aggregation was started with LMW α-Syn of concentration ~300 μM in 1.5 ml microfuge tube in 20 mM MES buffer, pH 6.0, with 0.01% NaN3. […] The microfuge tubes with protein solutions were placed into Echo-Therm model RT11 vertical rotor (Torrey Pines Scientific, USA) with a speed of 50 rpm, at 37 °C inside an incubator.
The experiments were performed in FluoroMax-4 spectrofluorometer (HORIBA JobinYvon) with excitation and emission slit widths of 5 nm. Fluorescence was done in 20 mM MES buffer (pH 6.0, 0.01% NaN3).

[3] = molecular target: T2, α-Syn; test: TEM of α-Syn aggregates formed in presence of analogs; type: biochemical
Description: as §1
The samples were then washed thrice with autoclaved MQ. The samples were then stained with 10 μl of uranyl formate 1% (w/v) and incubated in dark for 10 min. The EM image of each sample was acquired at 120 kV with magnifications in the range of 26,000X and 43,000X using a transmission electron microscope (TECNAI12 D312 FEI, Netherlands).

Kd [1]: 16.1 ± 3.81 µM
lag time of α-Syn aggregation ([2]; compound fluorescence, MES pH 6.0): 3.5 ± 0.5 h
SMILES: COc1cc(/C=C/C(=O)CC(=O)/C=C/c2ccc(OCc3ccccc3)c(OC)c2)ccc1OCc1ccccc1 [C6]
effect on rate/kinetics of α-Syn aggregation [2]: fastest; also recorded: significantly accelerated α-Syn aggregation kinetics
average fibril thickness of fibrils formed in presence of analog [3]: more in comparison to fibrils formed in presence of other analogs
